In patent publication US11970498B2, “CDK2 inhibitors” (BLUEPRINT MEDICINES CORPORATION, priority 2021, dated 2024):

Columns and labels:
CDK1/Cyclin B1, GST-tag = target: T1, CDK1/Cyclin B1, GST-tag (Homo sapiens, UniProt P06493); test: CDK1/Cyclin B1 biochemical phosphorylation assay (Caliper mobility shift); details: apparent IC50; 1.0 mM ATP or ATP Km; 1.5 nM enzyme; 25° C.
T1 construct: GST
Method in brief: (§1)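 Caliper electrophoretic separation of substrate and phosphopeptide gave apparent IC50s. Enzymes: CDK1/Cyclin B1 GST-tag 1.5 nM, CDK2/Cyclin E 1.25 nM; ATP 1.0 mM or at Km; 7.5 µM FL-peptide; pH 7.5 HEPES buffer, 1% DMSO; room temperature until 10–20% phosphorylated, then EDTA quench.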

CDK2/Cyclin E = CDK2/Cyclin E (Homo sapiens, UniProt P24941); test: CDK2/Cyclin E biochemical phosphorylation assay (Caliper mobility shift); details: apparent IC50; 1.0 mM ATP or ATP Km; 1.25 nM enzyme; 25° C.; read-out: CDK2/cyclin E1 IC50
Method in brief: as §1

T1 sequence (P06493 whole entry): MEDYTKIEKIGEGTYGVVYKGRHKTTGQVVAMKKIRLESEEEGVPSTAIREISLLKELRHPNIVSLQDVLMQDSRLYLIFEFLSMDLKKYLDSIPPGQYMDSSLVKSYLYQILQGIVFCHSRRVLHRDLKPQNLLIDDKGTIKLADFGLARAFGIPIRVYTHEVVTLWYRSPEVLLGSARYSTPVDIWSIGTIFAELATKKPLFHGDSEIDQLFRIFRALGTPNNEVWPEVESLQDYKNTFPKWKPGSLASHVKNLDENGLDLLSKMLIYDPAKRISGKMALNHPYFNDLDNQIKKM
T1 sequence (P14635 whole entry partner): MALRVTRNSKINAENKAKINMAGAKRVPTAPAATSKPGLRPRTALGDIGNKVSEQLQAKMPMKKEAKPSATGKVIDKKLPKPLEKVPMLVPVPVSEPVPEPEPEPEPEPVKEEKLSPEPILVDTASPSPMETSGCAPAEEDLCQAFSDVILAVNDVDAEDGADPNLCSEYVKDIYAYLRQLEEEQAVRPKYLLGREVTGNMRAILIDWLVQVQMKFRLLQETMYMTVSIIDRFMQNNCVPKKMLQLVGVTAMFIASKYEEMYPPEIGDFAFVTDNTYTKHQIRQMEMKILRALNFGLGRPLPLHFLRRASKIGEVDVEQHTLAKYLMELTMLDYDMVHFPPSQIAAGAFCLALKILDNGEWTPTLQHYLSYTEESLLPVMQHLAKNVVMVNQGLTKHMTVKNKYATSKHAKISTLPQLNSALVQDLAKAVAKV

IC50 (CDK1/Cyclin B1, GST-tag)	IC50 (CDK2/Cyclin E)	SMILES
100 to 500 nM	≤ 10 nM	C[C@@H](C1CCOCC1)n1ncc2ncc(Nc3cc(OC(F)F)[nH]n3)nc21 [Example 77, (S)-N-(5-(difluoromethoxy)-1H-pyrazol-3-yl)-1-(1-(tetrahydro-2H-pyran-4-yl)ethyl)-1H-pyrazolo[3,4-b]pyrazin-6-amine]
≥ 500 nM	20 to 30 nM	C[C@@H](c1cnccc1F)n1ncc2ncc(Nc3cc(OC(F)F)[nH]n3)nc21 (single isomer, unassigned) [Example 173, (S)-N-(5-(difluoromethoxy)-1H-pyrazol-3-yl)-1-(1-(4-fluoropyridin-3-yl)ethyl)-1H-pyrazolo[3,4-b]pyrazin-6-amine or (R)-N-(5-(difluoromethoxy)-1H-pyrazol-3-yl)-1-(1-(4-fluoropyridin-3-yl)ethyl)-1H-pyrazolo[3,4-b]pyrazin-6-amine]
≥ 500 nM	≤ 10 nM	FC(F)Oc1cc(Nc2cnc3cnn(C[C@@H]4CC4(F)F)c3n2)n[nH]1 (single isomer, unassigned) [Example 163, (S)-1-((2,2-difluorocyclopropyl)methyl)-N-(5-(difluoromethoxy)-1H-pyrazol-3-yl)-1H-pyrazolo[3,4-b]pyrazin-6-amine or (R)-1-((2,2-difluorocyclopropyl)methyl)-N-(5-(difluoromethoxy)-1H-pyrazol-3-yl)-1H-pyrazolo[3,4-b]pyrazin-6-amine]
≥ 500 nM	≤ 10 nM	FC(F)Oc1cc(Nc2cnc3cnn(C[C@H]4C[C@@H]4F)c3n2)n[nH]1 (single isomer, unassigned) [Example 159, N-(5-(difluoromethoxy)-1H-pyrazol-3-yl)-1-(((1R,2S)-2-fluorocyclopropyl)methyl)-1H-pyrazolo[3,4-b]pyrazin-6-amine or N-(5-(difluoromethoxy)-1H-pyrazol-3-yl)-1-(((1S,2R)-2-fluorocyclopropyl)methyl)-1H-pyrazolo[3,4-b]pyrazin-6-amine]
